Data: PubChem BioAssay (NCI)
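GI50 marks 50% less growth. TGI: concentration producing complete growth inhibition.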

Columns and labels:
Test in all cases: NCI anticancer screen, dose series, 384-well format
ACHN renal = system: ACHN renal
RXF 393 renal = system: RXF 393 renal
SK-OV-3 ovarian = system: SK-OV-3 ovarian
MDA-MB-468 breast = system: MDA-MB-468 breast
SF-539 CNS = system: SF-539 CNS
KM12 colon = system: KM12 colon
OVCAR-8 ovarian = system: OVCAR-8 ovarian
MCF7 breast = system: MCF7 breast
HOP-92 NSCLC = system: HOP-92 NSCLC
MOLT-4 leukemia = system: MOLT-4 leukemia
786-0 renal = system: 786-0 renal
HL-60(TB) leukemia = system: HL-60(TB) leukemia
HCT-15 colon = system: HCT-15 colon
EKVX NSCLC = system: EKVX NSCLC
SR leukemia = system: SR leukemia
MALME-3M melanoma = system: MALME-3M melanoma
UACC-62 melanoma = system: UACC-62 melanoma
OVCAR-3 ovarian = system: OVCAR-3 ovarian
NCI-H322M lung = system: NCI-H322M lung
T-47D breast = system: T-47D breast
SF-268 CNS = system: SF-268 CNS
SK-MEL-5 melanoma = system: SK-MEL-5 melanoma
SK-MEL-28 melanoma = system: SK-MEL-28 melanoma
BT-549 breast = system: BT-549 breast
IGROV1 ovarian = system: IGROV1 ovarian
A498 renal = system: A498 renal
PC-3 prostate = system: PC-3 prostate
NCI-H23 lung = system: NCI-H23 lung
A549 NSCLC = system: A549 NSCLC
OVCAR-5 ovarian = system: OVCAR-5 ovarian
CCRF-CEM leukemia = system: CCRF-CEM leukemia
TK-10 renal = system: TK-10 renal
MDA-MB-435 melanoma = system: MDA-MB-435 melanoma
SNB-75 CNS = system: SNB-75 CNS
M14 melanoma = system: M14 melanoma
OVCAR-4 ovarian = system: OVCAR-4 ovarian
NCI-H460 NSCLC = system: NCI-H460 NSCLC
SK-MEL-2 melanoma = system: SK-MEL-2 melanoma
RPMI-8226 leukemia = system: RPMI-8226 leukemia
U251 glioblastoma = system: U251 glioblastoma
CAKI-1 renal = system: CAKI-1 renal
UACC-257 melanoma = system: UACC-257 melanoma
NCI-H522 lung = system: NCI-H522 lung
HT29 colon = system: HT29 colon
COLO 205 colon = system: COLO 205 colon
HOP-62 NSCLC = system: HOP-62 NSCLC
HS 578T breast = system: HS 578T breast
MDA-MB-231 breast = system: MDA-MB-231 breast
DU-145 prostate = system: DU-145 prostate
NCI-H226 lung = system: NCI-H226 lung
HCC-2998 colon = system: HCC-2998 colon
K-562 leukemia = system: K-562 leukemia
SNB-19 CNS = system: SNB-19 CNS
HCT-116 colon = system: HCT-116 colon
LOX IMVI melanoma = system: LOX IMVI melanoma
SN12C renal = system: SN12C renal
SF-295 CNS = system: SF-295 CNS
UO-31 renal = system: UO-31 renal
NCI/ADR-RES ovarian = system: NCI/ADR-RES ovarian
SW-620 colon = system: SW-620 colon

## Nc1nc(OCc2ccccc2)c2[nH]cnc2n1
ACHN renal
  GI50: 46100 nM
RXF 393 renal
  GI50: 32500 nM
  TGI: 88700 nM
SK-OV-3 ovarian
  GI50: 23200 nM
  TGI: 50100 nM
MDA-MB-468 breast
  GI50: 25000 nM
  TGI: 61000 nM
SF-539 CNS
  GI50: 34700 nM
KM12 colon
  GI50: 66100 nM
OVCAR-8 ovarian
  GI50: 66400 nM
MCF7 breast
  GI50: 56200 nM
HOP-92 NSCLC
  GI50: 36800 nM
MOLT-4 leukemia
  GI50: 28900 nM
786-0 renal
  GI50: 35900 nM
HL-60(TB) leukemia
  GI50: 30200 nM
  TGI: 78300 nM
HCT-15 colon
  GI50: 28400 nM
EKVX NSCLC
  GI50: 43300 nM
SR leukemia
  GI50: 30900 nM
  TGI: 78400 nM
MALME-3M melanoma
  GI50: 30900 nM
  TGI: 79100 nM
UACC-62 melanoma
  GI50: 31400 nM
OVCAR-3 ovarian
  GI50: 69100 nM
NCI-H322M lung
  GI50: 57500 nM
T-47D breast
  GI50: 34500 nM
SF-268 CNS
  GI50: 66300 nM
SK-MEL-5 melanoma
  GI50: 27900 nM
SK-MEL-28 melanoma
  GI50: 66900 nM
BT-549 breast
  GI50: 26900 nM
  TGI: 78500 nM
IGROV1 ovarian
  GI50: 25700 nM
  TGI: 90500 nM
A498 renal
  GI50: 19600 nM
  TGI: 91900 nM
PC-3 prostate
  GI50: 55200 nM
NCI-H23 lung
  GI50: 31800 nM
A549 NSCLC
  GI50: 64500 nM
OVCAR-5 ovarian
  GI50: 70400 nM
CCRF-CEM leukemia
  GI50: 28400 nM
  TGI: 88900 nM
TK-10 renal
  GI50: 15800 nM
  TGI: 60700 nM
MDA-MB-435 melanoma
  GI50: 52400 nM
SNB-75 CNS
  GI50: 19600 nM
  TGI: 76500 nM
M14 melanoma
  GI50: 30400 nM
  TGI: 95800 nM
OVCAR-4 ovarian
  GI50: 64400 nM
NCI-H460 NSCLC
  GI50: 37800 nM
SK-MEL-2 melanoma
  GI50: 37200 nM
  TGI: 65800 nM
RPMI-8226 leukemia
  GI50: 18500 nM
  TGI: 37800 nM
U251 glioblastoma
  GI50: 38300 nM
CAKI-1 renal
  GI50: 20800 nM
  TGI: 55900 nM
UACC-257 melanoma
  GI50: 61600 nM
NCI-H522 lung
  GI50: 20800 nM
  TGI: 60700 nM
HT29 colon
  GI50: 53300 nM
COLO 205 colon
  GI50: 65700 nM
HOP-62 NSCLC
  GI50: 36700 nM
HS 578T breast
  GI50: 16600 nM
  TGI: 43700 nM
MDA-MB-231 breast
  GI50: 34600 nM
DU-145 prostate
  GI50: 52300 nM
NCI-H226 lung
  GI50: 29300 nM
  TGI: 80700 nM
HCC-2998 colon
  GI50: 30800 nM

## CC(C)C[C@H](NC(=O)CNC(=O)c1cc(Cl)ccc1Cl)B1OC(=O)CC(CC(=O)O)(C(=O)O)O1 (stereo partly drawn)
ACHN renal
  GI50: < 20.3 nM
  TGI: 63.7 nM
RXF 393 renal
  GI50: < 14 nM
  TGI: 27.1 nM
SK-OV-3 ovarian
  GI50: 204 nM
  TGI: 1550 nM
MDA-MB-468 breast
  GI50: < 14.4 nM
  TGI: < 20.6 nM
SF-539 CNS
  GI50: 15.1 nM
  TGI: 31.3 nM
KM12 colon
  GI50: 54.7 nM
  TGI: 148 nM
OVCAR-8 ovarian
  GI50: 66.8 nM
  TGI: 158 nM
MCF7 breast
  GI50: < 21.3 nM
  TGI: 619 nM
HOP-92 NSCLC
  GI50: 30 nM
  TGI: 71.8 nM
MOLT-4 leukemia
  GI50: < 12.8 nM
  TGI: < 17.4 nM
786-0 renal
  GI50: 24 nM
  TGI: 91.6 nM
HL-60(TB) leukemia
  GI50: < 13.4 nM
  TGI: 19.9 nM
HCT-15 colon
  GI50: 36.7 nM
  TGI: 101 nM
EKVX NSCLC
  GI50: 97.4 nM
  TGI: 448 nM
SR leukemia
  GI50: < 17.7 nM
  TGI: < 21.6 nM
MALME-3M melanoma
  GI50: < 13.7 nM
  TGI: 27.5 nM
UACC-62 melanoma
  GI50: 25.6 nM
  TGI: 66.1 nM
OVCAR-3 ovarian
  GI50: < 14.3 nM
  TGI: 26.4 nM
NCI-H322M lung
  GI50: 351 nM
  TGI: 2020 nM
T-47D breast
  GI50: 25.6 nM
  TGI: 70.8 nM
SF-268 CNS
  GI50: 23.6 nM
  TGI: 53.8 nM
SK-MEL-5 melanoma
  GI50: < 15.5 nM
  TGI: 28.1 nM
K-562 leukemia
  GI50: 17.2 nM
  TGI: 35 nM
SK-MEL-28 melanoma
  GI50: < 14.4 nM
  TGI: 25.3 nM
BT-549 breast
  GI50: 16.1 nM
  TGI: 30.8 nM
IGROV1 ovarian
  GI50: 70.6 nM
  TGI: 178 nM
A498 renal
  GI50: < 23.7 nM
  TGI: 191 nM
PC-3 prostate
  GI50: 48.1 nM
  TGI: 113 nM
NCI-H23 lung
  GI50: 26.8 nM
  TGI: 75.5 nM
A549 NSCLC
  GI50: 106 nM
  TGI: 1510 nM
OVCAR-5 ovarian
  GI50: 50.5 nM
  TGI: 181 nM
SNB-19 CNS
  GI50: 59.4 nM
  TGI: 272 nM
TK-10 renal
  GI50: < 18 nM
  TGI: 53 nM
MDA-MB-435 melanoma
  GI50: < 14.8 nM
  TGI: 28.3 nM
HCT-116 colon
  GI50: < 15.9 nM
  TGI: 34.7 nM
SNB-75 CNS
  GI50: 47.4 nM
  TGI: 118 nM
M14 melanoma
  GI50: 16.5 nM
  TGI: 32.6 nM
OVCAR-4 ovarian
  GI50: 53.2 nM
  TGI: 117 nM
LOX IMVI melanoma
  GI50: 33.9 nM
  TGI: 125 nM
NCI-H460 NSCLC
  GI50: 92.3 nM
  TGI: 317 nM
SK-MEL-2 melanoma
  GI50: 21.5 nM
  TGI: 42 nM
RPMI-8226 leukemia
  GI50: < 13.2 nM
  TGI: < 17.7 nM
SN12C renal
  GI50: 87.3 nM
  TGI: 263 nM
SF-295 CNS
  GI50: 30.5 nM
  TGI: 88.4 nM
U251 glioblastoma
  GI50: 98.5 nM
  TGI: 472 nM
CAKI-1 renal
  GI50: < 20.4 nM
  TGI: 152 nM
UACC-257 melanoma
  GI50: 17.3 nM
  TGI: 33.3 nM
NCI-H522 lung
  GI50: 15.7 nM
  TGI: 31.1 nM
HT29 colon
  GI50: 23.4 nM
  TGI: 62.4 nM
UO-31 renal
  GI50: 18 nM
  TGI: 36.6 nM
COLO 205 colon
  GI50: 58 nM
  TGI: 557 nM
HOP-62 NSCLC
  GI50: 42.3 nM
  TGI: 164 nM
HS 578T breast
  GI50: 16.7 nM
  TGI: 32.7 nM
NCI/ADR-RES ovarian
  GI50: 189 nM
  TGI: 448 nM
MDA-MB-231 breast
  GI50: 33.3 nM
  TGI: 86.3 nM
SW-620 colon
  GI50: < 15.3 nM
  TGI: 33.2 nM
DU-145 prostate
  GI50: 44.1 nM
  TGI: 233 nM
NCI-H226 lung
  GI50: < 13.5 nM
  TGI: 24.5 nM
HCC-2998 colon
  GI50: 51.5 nM
  TGI: 101 nM
